The source of these data is publication PMC13046583, “SRS143 a semi-synthetic analogue of andrographolide against house dust mite induced allergic asthma” (Naunyn-Schmiedeberg's Archives of Pharmacology, 2025).

The structures appear in SMILES notation. Entries after “also recorded” stand apart in the source; their conditions may differ.

For data set [1], the system named is RBL-2H3 cells. Put plainly: β-hexosaminidase release assay, calcium ionophore A23187 stimulation. The class given is cell-based. The method, then:
(§1) The inhibitory activity of SRS143 and quercetin against the release of β-hexosaminidase from RBL-2H3 cells was evaluated according to the method reported previously (Lin et al. [2020]). Briefly, the cells were cultured in a 24-well cell culture plate (9 × 10^5/well, Becton–Dickinson Co., Franklin Lakes, NJ) with concentration ([…]) of mouse monoclonal anti-dinitrophenyl (DNP) IgE. After washing with PBS, SRS143 at various concentrations (0, 0.1, 1 and 10 μM)) or quercetin (30 μM) was added. After 60 min of incubation, DNP-labeled bovine serum albumin (DNP-labeled BSA, 50 ng/ml final concentration) was added, followed by 45 min of incubation. The supernatant (50 μl) was mixed with 100 μl of a 0.1 M citrate buffer (pH 4.5) containing 1 mM […] and the mixture was incubated in a 96-well plate at 37 °C for 60 min. For the calcium ionophore stimulation method, CaI A23187 was added at 5 µM to induce degranulation. Each well was replaced with 0.4 mL of MEM media and 100 µL of MTT solution to evaluate cell viability using MTT assay. Supernatants from CaI A23187-induced degranulated cells were collected, centrifuged, and reacted with PNAG in citrate buffer at 37℃ for 1 h. The reaction was stopped, and absorbance at 405 nm was measured using a microplate reader (Versamax).to assess beta-hexosaminidase activity, indicating enzyme subproduct levels. The results are expressed as percentage release of β-hexosaminidase activity amount by antigen (DNP-labeled BSA) alone.
(§2) Mast cell degranulation is the key process in allergic asthma. To induce mast cell degranulation process in RBL-2H3 cells, the cells were sensitized and challenged with DNP-labelled specific antigen IgE. Alternatively, the mast cells were induced with calcium ionophore A23187 to trigger direct degranulation independent of activation of IgE. The release was assessed with β-hexosaminidase assay whereby the amount β-hexosaminidase enzyme released correlates to histamine release by RBL-2H3 cells. In the preliminary screening, single low dose of 10 µM of AGP and its derivatives were applied to the calcium ionophore activated cells for a short duration of 1 h. Quercetin as positive control was also applied at a higher dose of 50 µM. For cell viability assay, the cells were washed and replenished with fresh medium supplemented with 15% FBS after 1 h of treatment. The cell viability was measured at 24 h. […] Given close to eightfold improved potency in inhibition of mast degranulation (Fig. 4A, B and C). We further measured the efficacy of SRS143 in a dose response study involving both efficacy and toxicity.

In data set [2] the test system is RBL-2H3 cells. Put plainly: β-hexosaminidase release assay, IgE-FcεRI (DNP-IgE/DNP-BSA) stimulation. Type of data set: cell-based. The method, then:
The inhibitory activity of SRS143 and quercetin against the release of β-hexosaminidase from RBL-2H3 cells was evaluated according to the method reported previously (Lin et al. [2020]). Briefly, the cells were cultured in a 24-well cell culture plate (9 × 10^5/well, Becton–Dickinson Co., Franklin Lakes, NJ) with concentration ([…]) of mouse monoclonal anti-dinitrophenyl (DNP) IgE. After washing with PBS, SRS143 at various concentrations (0, 0.1, 1 and 10 μM)) or quercetin (30 μM) was added. After 60 min of incubation, DNP-labeled bovine serum albumin (DNP-labeled BSA, 50 ng/ml final concentration) was added, followed by 45 min of incubation. […] The reaction was stopped, and absorbance at 405 nm was measured using a microplate reader (Versamax).to assess beta-hexosaminidase activity, indicating enzyme subproduct levels. The results are expressed as percentage release of β-hexosaminidase activity amount by antigen (DNP-labeled BSA) alone.
Mast cell degranulation is the key process in allergic asthma. […] The release was assessed with β-hexosaminidase assay whereby the amount β-hexosaminidase enzyme released correlates to histamine release by RBL-2H3 cells. […] The cell viability was measured at 24 h. […] We further measured the efficacy of SRS143 in a dose response study involving both efficacy and toxicity.

Data set [3] is described as follows: Cell viability (MTT) assay. Type of data set: cell-based. The settings on record: rat, RBL-2H3 cells, 1 h treatment, washed, viability measured at 24 h. The method, then:
(§3) RBL-2H3 cells were maintained in Minimum Essential Media (MEM, ThermoFischer, Grand Island, NY), supplemented with 15% heat-inactivated FBS, 100 U/mL of penicillin and 100 µg/mL of streptomycin. The cytotoxicity effect of the SRS143 was carried out using the rapid colorimetric assay that measures the activity of mitochondrial dehydrogenase in living cells, which convert the pale yellow soluble tetrazolium salt MTT into a insoluble purple end product formazan.
as §1, §2

Data set [4] concerns HDM-induced asthmatic BALB/c mice. Put plainly: House dust mite allergic asthma mouse model, BAL fluid total and differential cell counts. The class given is in vivo. The settings on record: day 7-11, n = 6; for BAL fluid airway infiltration of all inflammatory leukocytes: 1 mg/kg i.p., positive control. Here is the method: (§4) BALB/c mice of 6–8 weeks of age were housed in the animal experimentation unit, Faculty of Medicine and Health Sciences, Universiti Putra Malaysia (UPM). Mice were kept in individually vented cages (1820 cm^3, not more than 6 mice per cage) with a bed of poplar shaving and free access to clean water and food. Mice were grouped into 8 groups of 6 mice per group – Group 1: Normal control, Group 2: HDM, Group 3: Vehicle (6% DMSO), Group 4: SRS143 (0.3 mg/kg), Group 5: SRS143 (1 mg/kg), Group 6: SRS143 (3 mg/kg), Group 7: dexamethasone (1 mg/kg), Group 8: andrographolide (1 mg/kg). Throughout the study, both experimental and control mice were kept under appropriate conditions (22 ± 2 °C temperature, and 55 ± 10% relative humidity). The mice were maintained under a 12-h light-darkness cycle.
Allergic asthma was induced using house dust mite (Dermatophagoides pteronyssinus, Lot Number: 253983, Greer Laboratories, Lenoir, USA). The HDM was dissolved and prepared to a concentration of 5000 µg/mL in PBS, and then it was aliquoted and frozen (−20 °C) for further use. A 14-day HDM model was used to induce asthma in Balb/c mice (Lim et al. [2016]). The animals were sub-anesthetized using a cocktail of ketamine (50 mg/kg) and xylazine (3.3 mg/kg) for the intranasal HDM sensitization and challenged protocol. Briefly, the induction involved initial intranasal administration of 100 μg HDM extract (10 μL per nostril) on day 0, and subsequent administration of 10 μg of HDM (10 μL per nostril) on day 7—11. Mice were treated with SRS143 at doses of 0.3, 1, or 3 mg/kg, or with dexamethasone (1 mg/kg) or andrographolide (1 mg/kg). All treatments were administered at a constant volume of 10 mL/kg. Bronchoalveolar lavage (BAL) fluid collection was conducted on day 14.
Fig. 3 HDM-asthma induction protocol. Animals were intranasally (i.n.) sensitized using 100 μg of house dust mite (HDM) on day 0, this was followed by daily HDM intranasal challenge (10 μg) on day 7 −11. […]
BAL fluid total and differential cell counts were determined as described (Matsuda et al. [1994]).

The test system of data set [5] is RBL-2H3 cells. Put plainly: Cell viability (MTT) assay. The class given is cell-based. The method, then: as §3, §1, §2
Another data set has as its system Akt phosphorylation. Put plainly: Immunoblotting of Akt phosphorylation in IgE-FcεRI activated mast cells. Type of data set: cell-based. The settings on record: IgE-FcεRI activated RBL-2H3 cells, 0.1, 1 and 10 µM, n = 3. Here is the method: Nuclear proteins of RBL-2H3 cells (10 µg per lane) were separated by 10% SDS-PAGE and immunoblots were developed as described (Matsuda et al. [1994]). Immunoblots were probed with anti-AKT and anti-β-actin antibodies (all from Cell Signalling Technology, Beverly, MA).
For orientation: A western blot detects proteins with antibodies after separation by electrophoresis.

Data set [6] deals with HDM-induced asthmatic BALB/c mice. Put plainly: House dust mite allergic asthma mouse model, lung histology (H&E, PAS). Type of data set: in vivo. The method, then: as §4
Allergic asthma was induced using house dust mite (Dermatophagoides pteronyssinus, Lot Number: 253983, Greer Laboratories, Lenoir, USA). The HDM was dissolved and prepared to a concentration of 5000 µg/mL in PBS, and then it was aliquoted and frozen (−20 °C) for further use. […]
Isolated lungs were fixed in 10% neutral formalin and processed. […] (5 µm) were stained with H&E for inflammatory cell infiltration and Periodic Acid Schiff […] stain (PAS) for mucus production. Quantitative analysis under a light microscope was then performed. […]

The test system is the same in data set [7]. Put plainly: House dust mite allergic asthma mouse model, airway hyperresponsiveness to methacholine. Type of data set: in vivo. To be noted: methacholine 2-32 mg/ml, n = 6. The method, then: as §4
Allergic asthma was induced using house dust mite (Dermatophagoides pteronyssinus, Lot Number: 253983, Greer Laboratories, Lenoir, USA). The HDM was dissolved and prepared to a concentration of 5000 µg/mL in PBS, and then it was aliquoted and frozen (−20 °C) for further use. A 14-day HDM model was used to induce asthma in Balb/c mice (Lim et al. [2016]). The animals were sub-anesthetized using a cocktail of ketamine (50 mg/kg) and xylazine (3.3 mg/kg) for the intranasal HDM sensitization and challenged protocol. […]

Setting [8] is: Rattus norvegicus, 10 µM, 1 h, calcium ionophore A23187 activated RBL-2H3 cells, read-out: Inhibition of β-Hexosaminidase Enzyme Release (%).

Take `C=C1CC[C@@H]2[C@](C)(CO)[C@H](O)CC[C@@]2(C)[C@@H]1C/C=C1/C(=O)OC[C@H]1O` [AGP, andrographolide]: the “Inhibition of β-Hexosaminidase Enzyme Release (%)” value with RBL-2H3 cells [1] (10 µM, 1 h, calcium ionophore A23187 activated RBL-2H3 cells) is listed as “low percentage inhibition level”. The inhibition at 10 µM in the data set with RBL-2H3 cells [1] (setting [8]) amounted to 11.1 ± 5.7%. In addition, the “In vitro antihistamine activity” value in the data set with RBL-2H3 cells [1] (calcium ionophore activated RBL-2h3 cells) and in the data set with RBL-2H3 cells [2] (DNP-IgE activated RBL-2h3 cells) was “did not show any in vitro antihistamine activity” each time. For the same molecule, the viability at 1 h, 10 µM in data set [3] came out at 81.3%. The “BAL fluid airway infiltration of all inflammatory leukocytes” value in data set [4] is on record as “showed inhibition”.

In the case of `C=C1CCC2C(C)(CO)C(O)CCC2(C)C1C=CC1=CCOC1=O` (centres unmarked) [DDAG, 14-deoxy-11,12-didehydroandrographolide], the “Viability of RBL-2H3 Cells (%)” value with RBL-2H3 cells [5] (10 µM, 1 h treatment, washed, viability measured at 24 h) worked out at 99.6%.

For `C[C@@H]1C[C@H]2[C@@H]3CCC4=CC(=O)C=C[C@]4(C)[C@@]3(F)[C@@H](O)C[C@]2(C)[C@@]1(O)C(=O)CO` [Dexamethasone, dexamethasone, reference compound], the “BAL fluid airway infiltration of all inflammatory leukocytes” value in data set [4] is given as “showed inhibition”.

`O=c1c(O)c(-c2ccc(O)c(O)c2)oc2cc(O)cc(O)c12` [Quercetin, quercetin, reference compound]: in the data set on RBL-2H3 cells [1] (Rattus norvegicus, 50 µM, 1 h, calcium ionophore A23187 activated RBL-2H3 cells, read-out: Inhibition of β-Hexosaminidase Enzyme Release (%)), the inhibition at 50 µM was 78.8 ± 8.5%. Besides, the viability at 1 h, 50 µM in data set [3] (50 µM) was determined as 106%.

For the molecule `C=C1CCC2C3(C)COC(c4ccccc4)OC3CCC2(C)C1C/C=C1/C(=O)OCC1OC(C)=O` (centres unmarked) [SRS143, 3,19-Benzylidene-14-acetylandrographolide], the “Improved potency in inhibition of mast degranulation” value in the data set with RBL-2H3 cells [1] (10 µM screening, the comparator is not given, presumably AGP) is “eightfold”. Further, in the data set with RBL-2H3 cells [1] (Rattus norvegicus, RBL-2H3, 30 µM, 1 h, dose-response study (Fig. 4B), read-out: Inhibition of enzyme release), the inhibition at 30 µM was about 97%. The IC50 was found to be 6.5 µM in the data set with RBL-2H3 cells [1] (Rattus norvegicus, RBL-2H3, calcium ionophore A23187 stimulation, 1 h (Fig. 4B), read-out: IC50, inhibition of β-hexosaminidase release) and 6.5 µM in the data set on RBL-2H3 cells [2] (Rattus norvegicus, RBL-2H3, IgE-FceRI stimulation, 1 h (Fig. 4C), 50% mark on concentration axis, read-out: IC50, inhibition of β-hexosaminidase release). Also, the inhibition at 10 µM in the data set with RBL-2H3 cells [1] (setting [8]) amounted to 85.2 ± 3.1%. Also, in data set [3], the viability at 1 h, 10 µM is 107%. The “Cytotoxicity on RBL-2H3 cells” value in the data set with RBL-2H3 cells [5] (1 h, 24 h, and 24 h after washing at 1 h) was “only toxic if applied at the highest concentration of 100 µM”. Moreover, the “Levels of phosphorylated-Akt” value in the data set with Akt phosphorylation is “decrease significantly at the highest dose of 10 μM”. The “BAL fluid total cells, macrophage, neutrophil, eosinophil and lymphocyte infiltration” value in data set [4] (0.3, 1, 3 mg/kg i.p. 2 h before HDM challenge, vs HDM group) is reported as “significant reduction; also recorded: dose-dependently reduced”. For the same molecule, in data set [6] (0.3, 1, 3 mg/kg i.p., day 7-11), the “Peribronchial and perivascular inflammatory cellular infiltration in lung sections (H&E)” value is “dose-dependently decreased”. Moreover, the “PAS-positive cells score (mucus, goblet metaplasia)” value in data set [6] (SRS143 i.p., HDM sensitized and challenged mice) is “between mild to no observable goblet metaplasia”. Also, the “Airway resistance (RI) in response to methacholine” value in data set [7] (1 and 3 mg/kg i.p.) was “remarkable decrease”. Further, in data set [7] (SRS143 i.p.), the “Dynamic compliance (Cdyn) in response to methacholine” value is “no significant changes”.

What is called inhibition is how much of the control response was suppressed. The viability is a read-out of living cells in per cent, often relative to untreated cells. Broadly, the IC50 is the concentration at which inhibition is half-maximal.
